According to patent EP1200395B1, “UREA DERIVATIVES AS INHIBITORS OF CCR-3 RECEPTOR” (KIRIN BEER KABUSHIKI KAISHA, priority 1999, dated 2001):

Assays:
Type in all cases: cell-based
[1] = target: T1, CCR-3 (Homo sapiens, UniProt P51677); experiment: Eotaxin-induced chemotaxis of CCR-3 transfectant cells (CCR3/U937); design: expressed in transfected cells; host or cells: U937; settings: eotaxin 1 x 10^-9 M; for inhibition at 10 µM: U-937; for CCR-3 Transfectant Chemotaxis Assay 6.25 µg/ml (inhibition %): 6.25 µg/ml test compound, CCR3/U937 cells (Table 3b)
T1 sequence (P51677 1-355): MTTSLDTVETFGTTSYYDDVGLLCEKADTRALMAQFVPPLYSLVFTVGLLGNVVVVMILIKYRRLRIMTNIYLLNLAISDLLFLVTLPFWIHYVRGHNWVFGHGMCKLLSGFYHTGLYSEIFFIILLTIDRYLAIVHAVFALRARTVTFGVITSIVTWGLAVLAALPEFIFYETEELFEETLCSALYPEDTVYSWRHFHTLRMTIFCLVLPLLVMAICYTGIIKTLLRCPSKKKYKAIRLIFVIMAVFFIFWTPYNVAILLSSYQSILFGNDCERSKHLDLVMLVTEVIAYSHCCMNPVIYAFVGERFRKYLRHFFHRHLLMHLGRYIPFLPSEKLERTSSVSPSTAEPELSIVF

[2] = test system: human-derived eosinophils; experiment: Eotaxin-induced chemotaxis of cultured eosinophils; settings: 10.00 µM compound, human eotaxin 1 x 10^-9 M, 37°C for 1 hour; for inhibition at 10 µM: Eosinophil
Protocol: The inhibitory activity of the compounds against eotaxin-mediated chemotaxis of human-derived eosinophils was determined assay described below. Eosinophils were prepared from culture of human cord blood mononuclear cells as described by Ohashi, H. et al., Int Arch Allergy Immunol. (1999) 118, 44-50. For the assay, eosinophils were resuspended at 1 x 10^7 cells/ml in assay medium (RPMI 1640 medium containing 0.1 % bovine serum albumin (BSA)). The chemotaxis assay was performed in a 24-well culture plate. Human eotaxin suspended in assay medium was added into wells at 1 x 10^-9 M with test compounds at various concentrations. For a positive control, eotaxin was added without a test compound, and for a negative control, neither eotaxin nor a test compound was added to the wells. Chemotaxicell (Kurabo Co., Ltd.) having 5 micrometers pore size were inserted into each well and 100 microliters of eosinophil suspension were added to the top chamber. The plates were incubated at 37°C for 1 hour. After incubation, migrated cells in lower wells were diluted and counted by particle size distribution analyzer (CDP-500, Sysmex Co., Ltd.).

[3] = target: T1, CCR-3; experiment: Calcium mobilization assay (inhibition of eotaxin-induced intracellular calcium mobilization in CCR3/HEK293 cells); design: expressed in transfected cells; settings: 6.25 µg/ml test compound; eotaxin 10 nM; CCR3/HEK293 cells (Table 2a)
Protocol: Compounds 93-162 used in this assay were synthesized by using the method described in Example 6.
CCR-3 transfectant cells (CCR3/HEK293) were isolated and resuspended with assay buffer (20 mM HEPES, 125 mM NaCl, 5 mM KCl; 0.5 mM glucose, 1 mM CaCl2, 1 mM MgCl2, 0.1 % BSA). After washing CCR3/HEK293 cells with assay buffer, cells were loaded with Fura-2/AM in assay buffer for 1 hour at room temperature. Cells were washed and resuspended with assay buffer at 5 x 10^6 cells/ml in assay buffer, and placed in a tissue culture plate (Falcon, no. 3296). Test compounds dissolved in DMSO were added to the wells, followed by eotaxin (10 nM at final concentration). Cells were excited at 340 nm and 380 nm in a fluorimeter (ARGUS50, FDSS2000, Hamamatsu Photonics) and the relative ratio of the fluorescence emitted at 510 nm was recorded. For a control, DMSO without a test compound was added. Intracellular calcium mobilization was calculated as described in Krogel C. et al. , FEBS Let. (1989) 243 , 41-46.

[4] = 10 µM test compound, CCR3/U937 cells (Table 3a)

Compound	CCR-3 Transfectant Chemotaxis Assay 6.25 µg/ml (inhibition %) [1] [%]	Ca^2+ mobilization 6.25 µg/ml (inhibition %) [3]	other results
CCN(CCCNC(=O)Nc1ccccc1)CCc1ccc(Cl)cc1 [Compound 1, N-Phenylcarbamoyl-N'-[2-(4-chlorophenyl)ethyl]-N'-ethyl-1,3-diaminopropane]	–	–	inhibition at 10 µM [1, 4]: 100%; inhibition at 10 µM [2]: 100%
CCN(CCCNC(=O)Nc1ccc(Br)cc1)CCc1ccc(Cl)cc1 [Compound 3, N-(4-Bromophenylcarbamoyl)-N'-[2-(4-chlorophenyl)ethyl]-N'-ethyl-1,3-diaminopropane]	–	–	inhibition at 10 µM [1, 4]: 100%; inhibition at 10 µM [2]: 100%
COC(=O)CCCN(CCCNC(=O)Nc1ccc(Br)cc1)Cc1ccco1 [Compound 38]	–	–	Chemotaxis Assay 10 µM (inhibition %) [1, 4]: 46%; Cultured Eosinophil Chemotaxis assay 10.00 µM (inhibition %) [2]: 11%
C[C@H](c1ccccc1)N(CCCNC(=O)Nc1ccc(Br)cc1)CCCC(=O)O [Compound 61, 4-[[3-(4-Bromophenylureido)propyl][(1R)-1-phenylethyl]amino]-butanoic acid]	–	–	inhibition at 10 µM [1, 4]: 100%; inhibition at 10 µM [2]: 100%
O=C(O)CCCN(CCCNC(=O)Nc1ccc(Cl)c(Cl)c1)C1CCCc2ccccc21 (stereo not drawn) [Compound 65, 4-[[3-(3,4-Dichlorophenylureido)propyl](1,2,3,4-tetrahydro-1-naphthyl)amino]butanoic acid]	–	–	inhibition at 10 µM [1, 4]: 100%; inhibition at 10 µM [2]: 100%
O=C(O)CCCN(CCCNC(=O)Nc1ccc(Cl)c(C(F)(F)F)c1)CCC(c1ccccc1)c1ccccc1 [Compound 97]	21	57%	–
CC(C)CCN(CCCNC(=O)Nc1ccccc1-c1ccccc1)Cc1ccc2c(c1)OCO2 [Compound 99]	47	. 53%	–
CSCCCN(CCCNC(=O)Nc1ccccc1-c1ccccc1)Cc1ccc2c(c1)OCO2 [Compound 100]	54	53%	–
O=C(NCCCN(Cc1ccc2c(c1)OCO2)C[C@@H]1CCCN1)Nc1ccccc1-c1ccccc1 [Compound 102]	19	63%	–
COC(=O)CCCN(CCCNC(=O)Nc1ccccc1-c1ccccc1)CCc1ccccc1 [Compound 106]	47	57%	–
O=C(NCCCN(CCc1ccccc1)C[C@@H]1CCCN1)Nc1ccccc1-c1ccccc1 [Compound 107]	55	53%	–
COc1ccc(CCN(CCCNC(=O)Nc2ccccc2-c2ccccc2)CC(C)C)cc1OC [Compound 108]	23	61%	–
CCOC(=O)C1CC1CN(CCCNC(=O)Nc1ccccc1-c1ccccc1)CCc1ccc(OC)c(OC)c1 (stereo not drawn) [Compound 109]	12	51%	–
COc1ccc(CCN(CCCNC(=O)Nc2ccccc2-c2ccccc2)C[C@@H]2CCCN2)cc1OC [Compound 110]	32	57%	–
Cc1ccc(CCN(CCCNC(=O)Nc2ccccc2-c2ccccc2)CC(C)C)cc1 [Compound 111]	44	51%	–
CCOC(=O)C1CC1CN(CCCNC(=O)Nc1ccccc1-c1ccccc1)CCc1ccc(C)cc1 (stereo not drawn) [Compound 112]	26	52%	–
CC(C)CN(CCCNC(=O)Nc1ccccc1-c1ccccc1)CCc1ccc(Cl)c(Cl)c1 [Compound 113]	66	51%	–
O=C(NCCCN(CCc1ccccc1)CCc1ccc(Cl)c(Cl)c1)Nc1ccccc1-c1ccccc1 [Compound 114]	22	51%	–

Compound	CCR-3 Transfectant Chemotaxis Assay 6.25 µg/ml (inhibition %) [1] [%]	Ca^2+ mobilization 6.25 µg/ml (inhibition %) [3]	other results
CCOC(=O)C1CC1CN(CCCNC(=O)Nc1ccccc1-c1ccccc1)CCc1ccc(Cl)c(Cl)c1 (stereo not drawn) [Compound 115]	62	57%	–
O=C(NCCCN(CCc1ccc(Cl)c(Cl)c1)C[C@@H]1CCCN1)Nc1ccccc1-c1ccccc1 [Compound 116]	82	68%	–
CC(C)CN(CCCNC(=O)Nc1ccc(Br)cc1)CCc1c[nH]cn1 [Compound 118]	62	58%	–
CC(C)CCN(CCCNC(=O)Nc1ccc(Br)cc1)CCc1c[nH]cn1 [Compound 119]	65	62%	–
O=C(NCCCN(CCc1ccccc1)CCc1c[nH]cn1)Nc1ccc(Br)cc1 [Compound 120]	34	57%	–
O=C(NCCCN(CCOCc1ccccc1)CCc1c[nH]cn1)Nc1ccc(Br)cc1 [Compound 121]	64	52%	–
CC(C)CN(CCCNC(=O)Nc1ccc(Br)cc1)C1CCCc2ccccc21 (stereo not drawn) [Compound 122]	92	66%	–
CCOC(=O)C1CC1CN(CCCNC(=O)Nc1ccc(Br)cc1)C1CCCc2ccccc21 (stereo not drawn) [Compound 125]	90	65%	–
CC(C)CN(CCCNC(=O)Nc1ccc(Br)cc1)Cc1ccc2c(c1)OCO2 [Compound 126]	54	54%	–
O=C(NCCCN(Cc1ccc2c(c1)OCO2)C[C@@H]1CCCN1)Nc1ccc(Br)cc1 [Compound 128]	33	55%	–
Cc1ccc(CCN(CCCNC(=O)Nc2ccc(Br)cc2)CCCC(=O)O)cc1 [Compound 132]	11	55%	–
O=C(O)CCCN(CCCNC(=O)Nc1ccc(Br)cc1)CCc1ccc(Cl)c(Cl)c1 [Compound 133]	21	63%	–
Cc1cccc(NC(=O)NCCCN(C[C@@H]2CCCN2)C2CCCc3ccccc32)c1 (stereo partly drawn) [Compound 135]	12	57%	–
Cc1cccc(NC(=O)NCCCN(Cc2ccc3c(c2)OCO3)CC(C)C)c1 [Compound 136]	32	63%	–
CCN(CCCNC(=O)Nc1cccc(C)c1)CCc1ccccc1 [Compound 137]	40	50%	–
CCOC(=O)C1CC1CN(CCCNC(=O)Nc1cccc(C)c1)CCc1ccccc1 (stereo not drawn) [Compound 138]	31	56%	–
CCOC(=O)C1CC1CN(CCCNC(=O)Nc1cccc(Cl)c1)C1CCCc2ccccc21 (stereo not drawn) [Compound 149]	31	56%	–
CCOC(=O)C1CC1CN(CCCNC(=O)Nc1cccc(Cl)c1)CCc1ccc(Cl)c(Cl)c1 (stereo not drawn) [Compound 155]	56	69%	–
